Data set [1] addresses T1, GIST430 cell line expressing constitutive active cKIT receptor tyrosine kinase (Δ560-576 deletion) (Homo sapiens, UniProt P10721, DEL560-576).
T1 construct: endogenous in cells; host or cells: GIST430 cells
The experiment in a line: Cellular cKIT autophosphorylation (phospho-Y307-cKIT, Luminex bead assay) in GIST430 cells. The data set is classed as cell-based. As to conditions: cKIT autophosphorylation, GIST430 cells, compounds 45 min; read-out: GIST 430 IC50. How it is done:
Assay Principle for Cellular Testing of cKIT Mutant Inhibitors
The GIST430 cell line expressing constitutive active cKIT receptor tyrosine kinase (Δ560-576 deletion) and the Imatinib resistant GIST430/654 cell line expressing mutated constitutively active cKIT receptor tyrosine kinase (Δ560-576 deletion and V654A point mutation) were employed for assessing cellular potency of compounds. Cellular activity of mutant cKIT was determined by the degree of cKIT autophosphorylation at tyrosine 307 using a Luminex-based bead assay. GIST430 cells were plated with 22,000 cells per well of a 96-well plate in 100 μl medium (85% IMDM/15% FCS) and GIST430/654 cells were plated with 25,000 cells per well of a 96-well plate in 100 μl medium (85% IMDM/15% FCS supplemented with 100 nM Imatinib). At the following day compounds were added in a serial dilution for 45 min. Then, cells were lysed with 90 μl lysis buffer (20 mM Hepes pH 7.5, 200 mM NaCl, 1.5 mM MgCl2×6H2O, 0.4 mM EDTA, 1% Triton-X-100, 1% Phosphatase-Inhibitor II, 20 mM β-Glycerolphosphat, 0.1% Protease-Inhibitor Cocktail III, 0.01% Benzonase) and lysates were cleared by centrifugation through a 96-well filter plate (0.65 μm). Samples were incubated with Luminex-beads which were coupled with an anti-total cKIT antibody overnight at 4° C. under gentle agitation. For detection of phospho-Y307-cKIT a phosphospecific antibody and a species-specific PE-labeled secondary antibody were added. The amount of phospho-Y307-cKIT was determined in a Luminex 200 instrument measuring 100 events per well within 60 seconds.
Counts from samples treated with compounds were calculated as percent of control from solvent treated (0.3% DMSO) samples. Dose-response curves were fitted and IC50 values were determined using Genedata Screener software.

A short description of data set [2]: Determination of Efflux-Ratio (ER) in Caco-2 cells. As to conditions: human, Caco-2, pH 7.4. Background: Caco-2 monolayers are a common model of the intestinal barrier.
The target in a further data set is T2, c-Kit(V654A) (Homo sapiens, UniProt P10721, V654A).
T2 construct: recombinant human c-Kit, amino acids 544-end containing the V654A mutation; GST (N)
T2 sequence (P10721 544-976 V654A): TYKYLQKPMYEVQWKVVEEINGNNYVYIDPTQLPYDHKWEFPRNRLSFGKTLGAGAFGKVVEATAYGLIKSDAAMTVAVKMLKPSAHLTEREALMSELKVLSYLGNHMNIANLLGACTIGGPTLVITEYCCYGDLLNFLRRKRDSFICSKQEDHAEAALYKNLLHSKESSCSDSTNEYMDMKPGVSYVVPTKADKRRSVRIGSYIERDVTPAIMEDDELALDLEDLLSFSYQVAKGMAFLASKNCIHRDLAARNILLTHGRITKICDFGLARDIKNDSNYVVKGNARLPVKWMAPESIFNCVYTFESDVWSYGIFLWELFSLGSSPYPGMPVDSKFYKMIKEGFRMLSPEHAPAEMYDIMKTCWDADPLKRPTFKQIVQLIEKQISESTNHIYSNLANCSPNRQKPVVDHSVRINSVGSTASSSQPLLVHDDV
The experiment in a line: c-Kit(V654A) assay (33P-ATP filter binding kinase assay). As to conditions: recombinant human c-Kit aa 544-end V654A, ATP 200 μM. It counts as biochemical. The method in brief:
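Radiometric filter-binding read-out: substrate 33P incorporation counted by scintillation after P30 filtermat washes in 75 mM phosphoric acid and methanol. Enzyme: N-GST recombinant human c-Kit aa 544-end carrying V654A.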

The target in data set [3] is T3, GIST430/654 cell line expressing mutated constitutively active cKIT receptor tyrosine kinase (Δ560-576 deletion and V654A point mutation) (Homo sapiens, UniProt P10721, DEL560-576/V654A).
T3 construct: endogenous in cells; host or cells: GIST430/654 cells
T3 sequence (P10721 with tags, fused parts or gaps DEL560-576/V654A): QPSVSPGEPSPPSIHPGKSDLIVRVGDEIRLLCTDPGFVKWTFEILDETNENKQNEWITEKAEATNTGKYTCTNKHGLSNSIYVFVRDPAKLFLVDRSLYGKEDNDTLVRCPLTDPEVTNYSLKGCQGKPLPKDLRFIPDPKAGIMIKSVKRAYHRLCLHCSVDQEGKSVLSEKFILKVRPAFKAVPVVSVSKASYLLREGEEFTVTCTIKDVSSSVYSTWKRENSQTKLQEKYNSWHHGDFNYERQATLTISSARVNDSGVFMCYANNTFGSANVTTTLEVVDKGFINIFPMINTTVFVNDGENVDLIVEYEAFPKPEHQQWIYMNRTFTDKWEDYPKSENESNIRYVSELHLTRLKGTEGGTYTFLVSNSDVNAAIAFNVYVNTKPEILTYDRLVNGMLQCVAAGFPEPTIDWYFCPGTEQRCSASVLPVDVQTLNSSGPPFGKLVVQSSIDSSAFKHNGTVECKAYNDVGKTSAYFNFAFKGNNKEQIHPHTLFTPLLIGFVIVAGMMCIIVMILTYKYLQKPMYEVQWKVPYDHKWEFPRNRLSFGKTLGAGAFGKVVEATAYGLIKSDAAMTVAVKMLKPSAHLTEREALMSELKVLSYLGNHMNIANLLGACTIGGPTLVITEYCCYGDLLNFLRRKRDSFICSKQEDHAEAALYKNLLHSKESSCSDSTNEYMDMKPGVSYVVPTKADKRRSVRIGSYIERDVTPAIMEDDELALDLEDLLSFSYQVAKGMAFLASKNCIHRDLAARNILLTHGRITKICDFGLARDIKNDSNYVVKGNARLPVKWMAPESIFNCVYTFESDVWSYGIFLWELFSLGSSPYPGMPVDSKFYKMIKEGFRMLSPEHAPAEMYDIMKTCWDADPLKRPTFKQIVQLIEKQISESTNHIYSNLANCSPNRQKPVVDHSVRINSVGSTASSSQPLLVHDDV
The experiment in a line: Cellular cKIT autophosphorylation (phospho-Y307-cKIT, Luminex bead assay) in GIST430/654 cells. Particulars: compounds 45 min, read-out: GIST 430/654 IC50. It counts as cell-based. The method in brief:
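GIST430 (Δ560-576) and imatinib-resistant GIST430/654 (plus V654A; grown with 100 nM imatinib) cells were plated in IMDM/15% FCS and treated next day with serially diluted compound for 45 min. Lysates were captured on anti-total-cKIT Luminex beads overnight at 4 °C and probed for phospho-Y307. IC50 was taken from percent of 0.3% DMSO control.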

The values that follow come from patent publication US12655142B2 (Merck Patent GmbH, priority 2019, dated 2026).

As usually defined, the efflux ratio is a quotient of directional permeabilities that is used to spot active efflux.

T1 sequence (P10721 with tags, fused parts or gaps DEL560-576): as the sequence (P10721 with tags, fused parts or gaps DEL560-576/V654A) above, with A612V counted along it

For the compound `COc1ccn2c(-c3cc(NCc4ccc(-c5cnn(C)c5)cc4)ncn3)cnc2c1` [A1, 6-{7-methoxyimidazo[1,2-a]pyridin-3-yl}-N-{[4-(1-methyl-1H-pyrazol-4-yl)phenyl]methyl}pyrimidin-4-amine], the IC50 in data set [1] stood at 3.2 nM; at c-Kit(V654A), 8.6 nM; in data set [3] it was 55 nM. Moreover, the efflux ratio at 2 h, 1 μM in data set [2] is under 15.
With `COCCOc1ccn2c(-c3cc(NCc4ccc(-c5ccccc5)cc4)ncn3)cnc2c1` [A2, N-({[1,1′-biphenyl]-4-yl}methyl)-6-[7-(2-methoxyethoxy)imidazo[1,2-a]pyridin-3-yl]pyrimidin-4-amine], the IC50 in data set [1] is 7.7 nM; at c-Kit(V654A) it was 4.6 nM; in data set [3], 160 nM. In addition, in data set [2], the efflux ratio at 2 h, 1 μM is under 15.
Consider `COCCOc1ccn2c(-c3cc(NCc4ccc(-c5cnn(C)c5)cc4)ncn3)cnc2c1` [A4, 6-[7-(2-methoxyethoxy)imidazo[1,2-a]pyridin-3-yl]-N-{[4-(1-methyl-1H-pyrazol-4-yl)phenyl]methyl}pyrimidin-4-amine], for which the IC50 was determined as 4.8 nM in data set [1], 7.3 nM on c-Kit(V654A) and 48 nM in data set [3]. Also, in data set [2], the efflux ratio at 2 h, 1 μM was under 15.
Taken in the same sequence, the figures for `COCCOc1ccn2c(-c3cc(NCc4ccc(-n5ccnn5)cc4)ncn3)cnc2c1` [A16, 6-[7-(2-methoxyethoxy)imidazo[1,2-a]pyridin-3-yl]-N-{[4-(1H-1,2,3-triazol-1-yl)phenyl]methyl}pyrimidin-4-amine] were 4.2 nM, 6.3 nM, 130 nM and under 15.
With `COc1ccn2c(-c3cc(NCc4ccc(-n5ccnn5)cc4)ncn3)cnc2c1` [A18, 6-{7-methoxyimidazo[1,2-a]pyridin-3-yl}-N-{[4-(1H-1,2,3-triazol-1-yl)phenyl]methyl}pyrimidin-4-amine], the IC50 in data set [1] worked out at 7.2 nM; at c-Kit(V654A), 13 nM; in data set [3] it was 200 nM. In data set [2], the efflux ratio at 2 h, 1 μM was under 15.
In the same order, the values of `COc1ccn2c(-c3cc(NCc4ccc(-c5coc(C)n5)cc4)ncn3)cnc2c1` [A42, 6-{7-methoxyimidazo[1,2-a]pyridin-3-yl}-N-{[4-(2-methyl-1,3-oxazol-4-yl)phenyl]methyl}pyrimidin-4-amine] are 1.8 nM, 1.3 nM, 59 nM and under 15.
In the same order, the values of `Cn1cc(-c2ccc(CNc3cc(-c4cnc5cc(OCCN6CCOCC6)ccn45)ncn3)cc2)cn1` [A56, [4-(1-methyl-1H-pyrazol-4-yl)-benzyl]-{6-[7-(2-morpholin-4-yl-ethoxy)-imidazo[1,2-a]pyridin-3-yl]-pyrimidin-4-yl}-amine] are 3.9 nM, 7.3 nM, 50 nM and under 15.
In the same order, the values of `CN1CCC(COc2ccn3c(-c4cc(NCc5ccc(-c6cnn(C)c6)cc5)ncn4)cnc3c2)CC1` [A62, {6-[7-(1-methyl-piperidin-4-ylmethoxy)-imidazo[1,2-a]pyridin-3-yl]-pyrimidin-4-yl}-[4-(1-methyl-1H-pyrazol-4-yl)-benzyl]-amine] are 3.7 nM, 4.1 nM, 32 nM and under 15.
For `Cn1ncc(-c2ccc(CNc3cc(-c4cnc5cc(OCC6CCN(C7COC7)CC6)ccn45)ncn3)cc2)n1` [A76, [4-(2-methyl-2H-[1,2,3]triazol-4-yl)-benzyl]-{6-[7-(1-oxetan-3-yl-piperidin-4-ylmethoxy)-imidazo[1,2-a]pyridin-3-yl]-pyrimidin-4-yl}-amine], the IC50 in data set [1] came out at 2.1 nM; on c-Kit(V654A) it was 7.8 nM; in data set [3], 52 nM. Moreover, the efflux ratio at 2 h, 1 μM in data set [2] is under 15.
In the same order, the values of `Cn1cc(-c2ccc(CNc3cc(-c4cnc5cc(OCC6CCN(C7COC7)CC6)ccn45)ncn3)cc2)cn1` [A78, [4-(1-methyl-1H-pyrazol-4-yl)-benzyl]-{6-[7-(1-oxetan-3-yl-piperidin-4-ylmethoxy)-imidazo[1,2-a]pyridin-3-yl]-pyrimidin-4-yl}-amine] are 3.6 nM, 9.1 nM, 79 nM and under 15.
On to `CN1CCC(COc2ccn3c(-c4cc(NCc5ccc(-c6cnn(C)n6)cc5)ncn4)cnc3c2)CC1` [A79, {6-[7-(1-methyl-piperidin-4-ylmethoxy)-imidazo[1,2-a]pyridin-3-yl]-pyrimidin-4-yl}-[4-(2-methyl-2H-[1,2,3]triazol-4-yl)-benzyl]-amine], for which the IC50 in data set [1] came to 4.1 nM; at c-Kit(V654A) it was 1.5 nM; in data set [3] it was 28 nM. Moreover, in data set [2], the efflux ratio at 2 h, 1 μM was under 15.
In the same order, the values of `Cn1ncc(-c2ccc(CNc3cc(-c4cnc5cc(OCC(C)(C)O)ccn45)ncn3)cc2)n1` [A85, 2-methyl-1-(3-{6-[4-(2-methyl-2H-[1,2,3]triazol-4-yl)-benzylamino]-pyrimidin-4-yl}-imidazo[1,2-a]pyridin-7-yloxy)-propan-2-ol] are 3.3 nM, 6.5 nM, 65 nM and under 15.
Regarding `Cn1ncc(-c2ccc(CNc3cc(-c4cnc5cc(OCCN6CC7(COC7)C6)ccn45)ncn3)cc2)n1` [A108, [4-(2-methyl-2H-[1,2,3]triazol-4-yl)-benzyl]-(6-{7-[2-(2-oxa-6-aza-spiro[3.3]hept-6-yl)-ethoxy]-imidazo[1,2-a]pyridin-3-yl}-pyrimidin-4-yl)-amine], the IC50 in data set [1] came out at 1.5 nM; on c-Kit(V654A) it was 3.3 nM; in data set [3] it was 40 nM. Further, the efflux ratio at 2 h, 1 μM in data set [2] is under 15.
Regarding `CO[C@@H]1CCN(c2ccc(CNc3cc(-c4cnc5ccccn45)ncn3)cn2)C1` [A146, 6-{imidazo[1,2-a]pyridin-3-yl}-N-({6-[(3R)-3-methoxypyrrolidin-1-yl]pyridin-3-yl}methyl)pyrimidin-4-amine], the IC50 amounted to 48 nM in data set [1], 7 nM on c-Kit(V654A) and 340 nM in data set [3]. The efflux ratio at 2 h, 1 μM in data set [2] was under 15.
`c1ccn2c(-c3cc(NCc4ccc(N5CCCC5)nc4)ncn3)cnc2c1` [A147, (6-imidazo[1,2-a]pyridin-3-yl-pyrimidin-4-yl)-(6-pyrrolidin-1-yl-pyridin-3-ylmethyl)-amine]: the IC50 in data set [1] was 7.3 nM; at c-Kit(V654A) it was 5.4 nM; in data set [3] it was 430 nM. The efflux ratio at 2 h, 1 μM in data set [2] is under 15.
Taken in the same sequence, the figures for `F[C@H]1CCN(c2ccc(CNc3cc(-c4cnc5ccccn45)ncn3)cn2)C1` [A148, N-({6-[(3S)-3-fluoropyrrolidin-1-yl]pyridin-3-yl}methyl)-6-{imidazo[1,2-a]pyridin-3-yl}pyrimidin-4-amine] were 7.3 nM, 4.9 nM, 220 nM and under 15.
In the same order, the values of `FC1(F)CCN(c2ccc(CNc3cc(-c4cnc5ccccn45)ncn3)cn2)C1` [A150, [6-(3,3-difluoro-pyrrolidin-1-yl)-pyridin-3-ylmethyl]-(6-imidazo[1,2-a]pyridin-3-yl-pyrimidin-4-yl)-amine] are 12 nM, 8.9 nM, 140 nM and under 15.
